Experimental data as given in patent US8865894B2, “Oxazolidin-2-one compounds and uses thereof” (Novartis AG, priority 2012, dated 2014).
pIC50: −log10 of the molar value. Read-outs that look alike come from different tables or passages of the source.

How the values were obtained:
mTOR = target: T1, mTOR (Mus musculus, UniProt Q9JLN9); assay: Cellular assay mTOR (phospho-T389 S6K1 SureFire in TSC1-/- MEF cells); format: cell-based
T1 construct: endogenous in cells; host or cells: TSC1-/- MEF (mouse embryo fibroblasts)
Source text: A cell based assay (384-well format) was developed for determination of compound effects on cellular mTOR kinase activity in MEF (mouse embryo fibroblasts) cells derived from mice lacking TSC1 (Tuberosclerosis Complex1) a potent suppressor of mTOR kinase activity. Due to lack of TSC1 the mTOR kinase is constitutively activated resulting in permanent phosphorylation of Thr 389 of S6 kinase 1 (S6K1) which is one of the downstream targets of mTOR.
Using a SureFire Kit that enables to determine the phosphorylation of Thr389 on the S6K1 an assay was developed, validated and implemented in the Alpha-Screen format that allows the quantitative determination of phospho-T389 of S6K1 in cell lysates. […] These were in agreement with those values obtained with the biochemical mTOR ATP-binding assay enabling a quantitative comparison of potency of mTOR inhibitors.
TSC1−/− MEFs cells (Kwiatkowski, D. J., Zhang, H., Bandura, J. L., Heiberger, K. M., Glogauer, M., el-Hashemite, N., and Onda, H. (2002) Hum. Mol. Genet. 11, 525-534) were cultured in DMEM high glucose medium supplemented with 10% FBS (Invitrogen), 2 mM Glutamine and 1% (w/v) Penicillin/Streptomycin at 37° C., 5% CO2.
The SureFire kit for determination of P70S6kinase phosphorylation was purchased from Perkin Elmer (p70S6K p-T389, #TGR70S50K) and the assay was performed according to the instructions of the supplier and according to the generic method for SureFire assays. Shortly, 5 μL cell lysate per well were transferred to 384-well white proxy-plates (for luminescent readout) and mixed with […] and […] (final volume: 12 μL). After 3 h incubation in the dark at RT luminescence was read with the Envision Reader (Perkin Elmer). Untreated cells were used as control (high control) and cells treated with 3 μM BEZ235 were used as low control. The assay window between the signals obtained for the high and the low controls were defined as 100% and compound effects were expressed as percent inhibition. IC50 values were calculated from the dose response curves by graphical extrapolation.

human PI3Kβ = target: T2, human PI3Kβ (Homo sapiens, UniProt P42338); assay: Biochemical PI3Kbeta (KinaseGlo luminescent kinase assay); settings: 1 μM ATP, mean of n measurements, read-out: PI3Kb/ IC50
T2 construct: made in house
Procedure: Test compounds were dissolved in DMSO (10 mM) and transferred into 1.4 mL flat bottom or V-shaped Matrix tubes carrying a unique 2D matrix chip by individual Novartis compound hubs. The numbers of these chips were distinctively linked to Novartis Pharma Numbers. The stock solutions were stored at −20° C. if not used immediately. For the test procedure the vials were defrosted and identified by a scanner whereby a working sheet was generated that guided the subsequent working steps.
Compounds were either manually diluted in DMSO for individual experiments (96 wells enabling 10 cpds at 8 (single points) concentrations) as described in or prepared as described below if tested for profiling in 384-wells. This format enabled the assay of maximally 40 individual test compounds at 8 concentrations (single points) including 4 reference compounds. The dilution protocol included the production of “pre-dilution plates”, “master plates” and “assay plates”.
96 polypropylene well plates were used as pre-dilution plates. A total of 4 pre-dilution plates were prepared including 10 test compounds each on the plate positions A1-A10, one standard compound at A11 and one DMSO control at A12. Programs have been written to run these pipetting steps on the HamiltonSTAR robots.
Identical “assay plates” were then prepared by pipetting 50 nL each of compound dilutions of the “master plates” into 384-well “assay plates”. The compounds were mixed with 4.5 μL of assays components plus 4.5 μL enzyme corresponding to a 1:181 dilution enabling the final concentration of 10, 3.0, 1.0, 0.3, 0.1, 0.03, 0.01 and 0.003 μM, respectively. The preparation of the “master plates” was handled by the Matrix PlateMate Plus robot and replication of “assay plates” by the HummingBird robot.
Catalytically active human PI3Kα, PI3Kβ, PI3Kδ, and mTOR were cloned, expressed and purified as described (Maira S M, Stauffer F, Brueggen J, Furet P, Schnell C, Fritsch C, Brachmann S, Chène P, de Pover A, Schoemaker K, Fabbro D, Gabriel D, Simonen M, Murphy L, Finan P, Sellers W, García-Echeverría C (2008), Mol Cancer Ther. 7:1851-63 and Maira S M, Pecchi S, Brueggen J, Huh K, Schnell C, Fritsch C, Nagel T, Wiesmann M, Brachmann S, Dorsch M, Chène P, Schoemaker K, De Pover A, Menezes D, Fabbro D, Sellers W, García-Echeverría C, Voliva C F (2011), Mol. Cancer Ther. accepted).
The luminescence-based ATP detection reagent KinaseGlo was obtained from Promega, (Cat. No. V6714, Lot No. 236161) through Catalys, Wallisellen, Switzerland. (L-alpha-phosphatidylinositol (PI), Liver, Bovine) were obtained from Avanti Polar Lipid (Cat. No. 840042C, Lot#LPI-274), Phosphatidylinositol-4,5-bisphosphate (PIP(4,5)2 (Avanti, Cat. No. 840046×) or L-α-phosphatidylinositol (PI) was obtained from Avanti Polar Lipid (Cat. No. 840042C, Lot#LPI-274). L-α-Phosphatidylserine (PS) was from Avanti Polar Lipid (Cat. No. 840032C), n-OctylGlucoside Avanti Polar Lipid (Cat. No. 10634425001). Luminescence is a well established readout to determine ATP concentrations and can thus be used to follow the activity of many kinases regardless of their substrate. The Kinase Glo Luminescent Kinase Assay (Promega, Madison/Wis., USA) is a homogeneous HTS method of measuring kinase activity by quantifying the amount of ATP remaining in solution following a kinase reaction.
50 nL of compound dilutions were dispensed onto black 384-well low volume Non Binding Styrene (NBS) plates (Costar Cat. No. NBS#3676) as described in section 8.2. L-α-phosphatidylinositol (PI), provided as 10 mg/ml solution in methanol, was transferred into a glass tube and dried under nitrogen beam. It was then resuspended in 3% OctylGlucoside by vortexing and stored at 4° C. 5 μL of a mix of PI/OG with the PI3Ka and Pi3Kb subtypes were added. Kinase reactions were started by addition of 5 μl of ATP-mix containing in a final volume 10 μL 10 mM TRIS-HCl pH 7.5, 3 mM MgCl2, 50 mM NaCl, 0.05% CHAPS, 1 mM DTT and 1 μM ATP, and occurred at room temperature.

[1] = TSC1-/- MEF cells, read-out: mTOR S6K(T389)_TSC1ko/ IC50

T2 sequence (P42338 2-1070 limits assumed): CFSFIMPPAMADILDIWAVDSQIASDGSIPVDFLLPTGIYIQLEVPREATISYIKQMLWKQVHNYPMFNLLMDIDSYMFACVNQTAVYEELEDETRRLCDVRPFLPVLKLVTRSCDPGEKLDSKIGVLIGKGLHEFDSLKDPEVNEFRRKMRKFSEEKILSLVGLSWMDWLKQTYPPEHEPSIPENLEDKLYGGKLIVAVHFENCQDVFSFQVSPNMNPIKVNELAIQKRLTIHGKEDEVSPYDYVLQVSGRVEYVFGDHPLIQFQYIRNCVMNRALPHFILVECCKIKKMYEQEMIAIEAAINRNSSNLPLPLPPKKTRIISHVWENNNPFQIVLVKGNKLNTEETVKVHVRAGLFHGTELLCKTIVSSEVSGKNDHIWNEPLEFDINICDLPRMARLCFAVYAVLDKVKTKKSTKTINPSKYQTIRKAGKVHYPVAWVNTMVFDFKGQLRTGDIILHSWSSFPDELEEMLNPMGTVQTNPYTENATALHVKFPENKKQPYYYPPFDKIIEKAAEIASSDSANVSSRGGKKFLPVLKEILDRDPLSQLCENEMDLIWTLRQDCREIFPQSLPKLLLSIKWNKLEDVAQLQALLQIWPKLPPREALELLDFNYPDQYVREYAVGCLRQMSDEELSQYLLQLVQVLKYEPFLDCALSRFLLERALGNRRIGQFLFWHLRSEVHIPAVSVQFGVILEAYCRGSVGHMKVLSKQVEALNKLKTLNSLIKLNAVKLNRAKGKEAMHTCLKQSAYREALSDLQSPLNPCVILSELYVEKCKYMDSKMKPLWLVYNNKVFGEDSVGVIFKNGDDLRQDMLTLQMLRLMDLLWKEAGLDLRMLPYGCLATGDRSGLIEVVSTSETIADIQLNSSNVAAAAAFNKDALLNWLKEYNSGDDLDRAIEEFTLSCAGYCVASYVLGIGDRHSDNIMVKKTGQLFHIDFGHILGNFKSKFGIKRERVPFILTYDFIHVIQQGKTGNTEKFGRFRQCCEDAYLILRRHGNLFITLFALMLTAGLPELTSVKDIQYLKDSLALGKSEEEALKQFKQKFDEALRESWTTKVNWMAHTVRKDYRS

Row | SMILES | pIC50 (mTOR; [1]) | pIC50 (human PI3Kβ) | pIC50 (mTOR; second value / 3 of the 4 values / 3 of the 5 values as per footnote, read-out: mTOR S6K(T389)_TSC1ko IC50, further individual values (footnotes))
1 | C[C@H]1OC(=O)N(c2cc(-c3cnc(N)nc3C(F)(F)F)nc(N3CCOCC3)n2)[C@H]1COC=O [Example 12, Formic acid (4S,5R)-3-(2′-amino-2-morpholin-4-yl-4′-trifluoromethyl-[4,5′]bipyrimidinyl-6-yl)-5-methyl-2-oxo-oxazolidin-4-ylmethyl ester] | 5.96 | 7.31 | –
2 | C[C@H]1COC(=O)N1c1cc(-c2cnc(N)nc2C(F)(F)F)nc(N2CCOCC2)n1 [Example 1, (S)-3-(2′-Amino-2-morpholin-4-yl-4′-trifluoromethyl-[4,5′]bipyrimidinyl-6-yl)-4-methyl-oxazolidin-2-one] | 6.02 | 8.22 | –
3 | Nc1ncc(-c2cc(N3C(=O)OC4C(O)CCC43)nc(N3CCOCC3)n2)c(C(F)(F)F)n1 (single isomer, unassigned) [Example 22B] | 5.64 | 7.24 | –
4 | CC1(C)OC(=O)N(c2cc(-c3cnc(N)nc3C(F)(F)F)nc(N3CCOCC3)n2)[C@H]1CO [Example 2, (S)-3-(2′-Amino-2-morpholin-4-yl-4′-trifluoromethyl-[4,5′]bipyrimidinyl-6-yl)-4-hydroxymethyl-5,5-dimethyl-oxazolidin-2-one] | – | 7.70 | –
5 | [2H]C1([2H])OC([2H])([2H])C([2H])([2H])N(c2nc(-c3cnc(N)nc3C(F)(F)F)cc(N3C(=O)O[C@H](C)[C@@H]3CO)n2)C1([2H])[2H] [Example 8] | 6.00 | 8.40 | –
6 | Nc1ncc(-c2cc(N3C[C@@H](CO)OC3=O)nc(N3CCOCC3)n2)c(C(F)(F)F)n1 [Example 14, (S)-3-(2′-Amino-2-morpholin-4-yl-4′-trifluoromethyl-[4,5′]bipyrimidinyl-6-yl)-5-hydroxymethyl-oxazolidin-2-one] | < 5.64 | 7.74 | –
7 | [2H]C1([2H])OC([2H])([2H])C([2H])([2H])N(c2nc(-c3cnc(N)nc3C(F)(F)F)cc(N3C(=O)OC[C@@H]3C)n2)C1([2H])[2H] [Example 17, (S)-3-(2′-amino-2-D8-morpholino-4′-(trifluoromethyl)-[4,5′-bipyrimidin]-6-yl)-4-methyloxazolidin-2-one] | 6.06 | 8.15 | –
8 | Nc1ncc(-c2cc(N3C(=O)O[C@H]4COC[C@H]43)nc(N3CCOCC3)n2)c(C(F)(F)F)n1 [Example 21, (3aR,6aR)-3-(2′-amino-2-morpholino-4′-(trifluoromethyl)-[4,5′-bipyrimidin]-6-yl)-tetrahydrofuro[3,4-d]oxazol-2(3H)-one] | 6.03 | 7.46 | –
9 | Nc1ncc(-c2cc(N3CCOC3=O)nc(N3CCOCC3)n2)c(C(F)(F)F)n1 [Example 11, 3-(2′-Amino-2-morpholin-4-yl-4′-trifluoromethyl-[4,5′]bipyrimidinyl-6-yl)-oxazolidin-2-one, reference compound] | 5.85 | 7.92 | < 5.64
10 | C[C@H]1CN(c2cc(-c3cnc(N)nc3C(F)(F)F)nc(N3CCOCC3)n2)C(=O)O1 [Example 16, (S)-3-(2′-Amino-2-morpholin-4-yl-4′-trifluoromethyl-[4,5′]bipyrimidinyl-6-yl)-5-methyl-oxazolidin-2-one] | 6.03 | 7.70 | –
11 | Nc1ncc(-c2cc(N3C(=O)OC4C(O)CCC43)nc(N3CCOCC3)n2)c(C(F)(F)F)n1 (single isomer, unassigned) [Example 22A] | 5.67 | 7.07 | –
12 | Nc1ncc(-c2cc(N3C(=O)O[C@H]4CCCC[C@@H]43)nc(N3CCOCC3)n2)c(C(F)(F)F)n1 [Example 4, (3aS,7aS)-3-(2′-Amino-2-morpholin-4-yl-4′-trifluoromethyl-[4,5′]bipyrimidinyl-6-yl)-hexahydro-benzooxazol-2-one] | 6.19 | 8.15 | –
13 | CC1(CO)COC(=O)N1c1cc(-c2cnc(N)nc2C(F)(F)F)nc(N2CCOCC2)n1 (racemic) [Example 3, 3-(2′-amino-2-morpholino-4′-(trifluoromethyl)-4,5′-bipyrimidin-6-yl)-4-(hydroxymethyl)-4-methyloxazolidin-2-one] | 6.12 | 7.74 | –

Now from value to molecule:

Row | pIC50 (mTOR; [1]) | pIC50 (human PI3Kβ) | pIC50 (mTOR; second value / 3 of the 4 values / 3 of the 5 values as per footnote, read-out: mTOR S6K(T389)_TSC1ko IC50, further individual values (footnotes)) | SMILES
14 | 6.07 | 6.91 | – | C[C@H]1C(CC(C)(C)O)OC(=O)N1c1cc(-c2cnc(N)nc2C(F)(F)F)nc(N2CCOCC2)n1 (mixture of isomers) [Example 26, (4S,5R)- and (4S,5S)-3-(2′-amino-2-morpholino-4′-(trifluoromethyl)-[4,5′-bipyrimidin]-6-yl)-5-(2-hydroxy-2-methylpropyl)-4-methyloxazolidin-2-one]
15 | 6.10 | 8.40 | – | C[C@H]1OC(=O)N(c2cc(-c3cnc(N)nc3C(F)(F)F)nc(N3CCOCC3)n2)[C@H]1CO [Example 18, (4S,5R)-3-(2′-Amino-2-morpholin-4-yl-4′-trifluoromethyl-[4,5′]bipyrimidinyl-6-yl)-4-hydroxymethyl-5-methyl-oxazolidin-2-one]
16 | 6.24 | 8.15 | – | C[C@@H]1OC(=O)N(c2cc(-c3cnc(N)nc3C(F)(F)F)nc(N3CCOCC3)n2)[C@H]1CO [Example 6]
17 | 5.95 | 7.96 | – | C[C@H]1[C@@H](CCO)OC(=O)N1c1cc(-c2cnc(N)nc2C(F)(F)F)nc(N2CCOCC2)n1 [Example 23, (4S,5R)-3-(2′-Amino-2-morpholino-4′-(trifluoromethyl)-[4,5′-bipyrimidin]-6-yl)-5-(2-hydroxyethyl)-4-methyloxazolidin-2-one]
18 | 6.37 | 8.30 | – | C[C@H]1[C@@H](CO)OC(=O)N1c1cc(-c2cnc(N)nc2C(F)(F)F)nc(N2CCOCC2)n1 [Example 19, (4S,5S)-3-(2′-Amino-2-morpholin-4-yl-4′-trifluoromethyl-[4,5′]bipyrimidinyl-6-yl)-5-hydroxymethyl-4-methyl-oxazolidin-2-one]
